What was measured:
TGase [1] = experiment: 14C-putrescine incorporation into N,N'-dimethyl casein in kidney homogenates of treated SNx rats; format: in vivo, rat; conditions: day 84
Description: (§1) Male Wistar rat of approximately 300 g weight was anaesthetised using 5% halothane and maintained at 3% for the duration of the surgical procedure. The rat was subjected to a ⅚th subtotal nephrectomy (SNx) by ligation of the left renal artery and vein followed by complete nephrectomy of the left kidney. The right kidney had both the upper and lower poles ligated followed by excision of both poles. A 9-cm cannula (0.32 mm bore) was sealed on one end and fenestrated between 3 and 12 mm from the sealed end. This was then inserted through the parenchyma (cut to cut/pole to pole) of the kidney so that the blunt end was just visible through one of the cut ends. This was then sealed in position using tissue glue on both ends of the kidney such that the fenestrated area was within the remnant kidney. The cannula was passed through the muscle wall, which was then stitched using reabsorbable sutures. The cannula was then attached to the regulator of a 2 ml osmotic minipump (Azlet osmotic minipump (2 ml4), Charles Rivers, UK) that was loaded (primed for 15 hrs at RT) with either PBS (SNx) or TGase inhibitor 281 or 283 (SNx+281 and SNx+283, respectively) at a concentration of 50 mM (delivery 1.5 μl per hour). The pump was then positioned subcutaneously on the right upper flank of the animal and the skin sutured. […]

tissue transglutaminase = target: T1, tissue transglutaminase (UniProt P08587); experiment: TGase-mediated crosslinking of fibronectin, SDS-PAGE; format: biochemical; conditions: compound 250 μM, TGase and fibronectin 50 μg/ml each, 37° C. for 2 hr
T1 sequence (P08587 1-690): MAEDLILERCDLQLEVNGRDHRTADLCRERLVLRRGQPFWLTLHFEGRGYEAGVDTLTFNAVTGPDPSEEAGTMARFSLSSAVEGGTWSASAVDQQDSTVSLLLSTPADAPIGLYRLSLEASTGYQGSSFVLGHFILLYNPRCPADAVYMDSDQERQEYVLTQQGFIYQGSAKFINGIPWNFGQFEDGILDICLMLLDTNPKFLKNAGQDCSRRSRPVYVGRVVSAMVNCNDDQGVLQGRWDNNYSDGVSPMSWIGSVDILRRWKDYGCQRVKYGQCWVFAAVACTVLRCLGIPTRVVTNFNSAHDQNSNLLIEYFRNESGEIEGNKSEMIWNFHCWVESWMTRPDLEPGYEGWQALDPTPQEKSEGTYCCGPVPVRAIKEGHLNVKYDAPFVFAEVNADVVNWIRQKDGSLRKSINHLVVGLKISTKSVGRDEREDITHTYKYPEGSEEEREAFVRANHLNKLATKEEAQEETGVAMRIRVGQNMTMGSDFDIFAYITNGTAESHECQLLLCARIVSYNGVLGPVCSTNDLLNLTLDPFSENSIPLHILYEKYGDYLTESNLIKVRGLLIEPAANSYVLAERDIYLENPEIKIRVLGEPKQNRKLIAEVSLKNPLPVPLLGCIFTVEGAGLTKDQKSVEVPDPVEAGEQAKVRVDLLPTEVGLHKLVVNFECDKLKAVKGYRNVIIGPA
Method: • 1. Preactivate TGase in 3 mM DTT (where applicable) on ice for 1 hr. • 2. Crosslink TGase with fibronectin in 40 mM Tris/100 mM NaCl at 50 μg/ml final concentration each, according to Table 1 below. Include non-activated Tgase/preactivated Tgase controls in the presence and absence of the inhibitors to investigate potential homodimer formation. • 3. Incubate at 37° C. for 2 hr to allow crosslink formation to take place. • 4. Solubilise crosslink in 2× Laemmli buffer. Vortex and spin down insoluble material. • 5. Load 20 μg of total protein (Tgase+Fn) on a 7% acrylamide SDS PAGE gel. Run gel at […] until dye escapes from the bottom of the gel. • 6. Stain with coomassie brilliant blue for 1 hr at RT. • 7. De-stain in 30% methanol/10% acetic acid at RT.
SDS-PAGE data showing tTGase-mediated crosslinking of fibronectin following treatment with exemplary compounds of the invention is shown in FIG. 22.

TGase [2] = experiment: In situ TGase activity in kidney cryostat sections of treated SNx rats; format: in vivo, rat; conditions: SNx rats treated for 28 days, biotin cadaverine incorporation
Description: as §1, with “sutures.” for “sutures. The cannula was then attached to the regulator of a 2 ml osmotic minipump (Azlet osmotic minipump (2 ml4), Charles Rivers, UK) that was loaded (primed for 15 hrs at RT) with either PBS (SNx) or TGase inhibitor 281 or 283 (SNx+281 and SNx+283, respectively) at a concentration of 50 mM (delivery 1.5 μl per hour). The pump was then positioned subcutaneously on the right upper flank of the animal and the skin sutured.”
Rat kidneys treated in vivo with TGase inhibitors were snap-frozen in liquid nitrogen and 14 μm sections were cut using a cryostat and allowed to air-dry. […] Slides were viewed on a Leica TCSNT confocal microscope equipped with excitation and emission filters for Cy5, and emitted fluorescence was quantified with the software supplied by the manufacturer. […]

SNx rats = experiment: Renal function in subtotal nephrectomy (SNx) rats with inhibitor instilled into the kidney by osmotic minipump; format: in vivo, rat; conditions: 90 day SNx rats, inhibitor 50 mM instilled into kidney, 5 animals per group
Description: Male Wistar rat of approximately 300 g weight was anaesthetised using 5% halothane and maintained at 3% for the duration of the surgical procedure. The rat was subjected to a ⅚th subtotal nephrectomy (SNx) by ligation of the left renal artery and vein followed by complete nephrectomy of the left kidney. The right kidney had both the upper and lower poles ligated followed by excision of both poles. A 9-cm cannula (0.32 mm bore) was sealed on one end and fenestrated between 3 and 12 mm from the sealed end. This was then inserted through the parenchyma (cut to cut/pole to pole) of the kidney so that the blunt end was just visible through one of the cut ends. This was then sealed in position using tissue glue on both ends of the kidney such that the fenestrated area was within the remnant kidney. The cannula was passed through the muscle wall, which was then stitched using reabsorbable sutures. The cannula was then attached to the regulator of a 2 ml osmotic minipump (Azlet osmotic minipump (2 ml4), Charles Rivers, UK) that was loaded (primed for 15 hrs at RT) with either PBS (SNx) or TGase inhibitor 281 or 283 (SNx+281 and SNx+283, respectively) at a concentration of 50 mM (delivery 1.5 μl per hour). The pump was then positioned subcutaneously on the right upper flank of the animal and the skin sutured. The animal was then switched onto oxygen and allowed to partially regain consciousness before being returned to the cage. The pump was changed every 28 days under halothane anaesthesia. […] The animal was then anaesthetised, the remnant kidney recovered and a terminal blood sample collected.
Proteinuria, creatinine clearance, serum clearance, urine creatinine and urine urea were carried out by standard clinical chemistry techniques (Johnson et al., 1997, J. Clin. Invest. 99:2950-2960). Creatinine and urea were measured by the standard autoanalyser technique and proteinura by the Biuret method (Johnson et al., supra). Data represent mean values ±SE, taken from 5 animals per group.

SMILES	TGase activity by 14C-putrescine incorporation in kidney homogenates (FIG. 25b) (TGase [1])	tTGase-mediated crosslinking of fibronectin (FIG. 22) (tissue transglutaminase)	In situ TGase activity in kidney cryostat sections (FIG. 25a) (TGase [2])	Proteinuria, Mean (SNx rats) [mg/24 h]	Serum creatinine, Mean (SNx rats) [µM]	Serum urea, Mean (SNx rats) [mM/L]	Urine creatinine, Mean (SNx rats) [µM]	Urine urea, Mean (SNx rats) [mM/L]
C[S+](C)CC(=O)CCC(NC(=O)C(Cc1ccccc1)NC(=O)OCc1ccccc1)C(=O)O [Compound 281, N-Benzyloxycarbonyl-L-phenylalanyl-6-dimethylsulfonium-5-oxo-L-norleucine]	inhibition	inhibition	inhibition	503	208	22.32	4000	372
CC(=O)CSc1n(C)cc[n+]1C.[Cl-] [Compound 283, 1,3-dimethyl-2-(2-oxopropylsulfanyl)-3H-1,3-diazol-1-ium-chloride, reference compound]	inhibition	–	inhibition	835	114	16.3	3140	272
C[S+](C)CC(=O)CCC(NC(=O)C(CCC(N)=O)NC(=O)OCc1ccccc1)C(=O)O [Compound 285, N-Benzyloxycarbonyl-L-glutaminyl-6-dimethylsulfonium-5-oxo-L-norleucine]	–	inhibition	–	–	–	–	–	–

From US7723307B2, “Amino acid derivatives and pharmaceutical uses thereof” (Aston University, priority 2003, dated 2010)
